Measured values reported in the supplement of paper PMC11208160.

Assay: recombinant UMI read abundance after kanamycin selection (control-corrected) (log10(CPM+1)); higher = more efficient recombination; extreme values may be limits of the assay; sequences stand for … in AGTGCAGAGAAAATCGGCCAGTTTTCTCTGCCTGCAGTCCGCATGCCGTGGGACCCCTTGGGTTCTAACCTGTTGCCTAGATTTATGCAGCGGACTGCCTTTCTCCCAAAGTGATAAACCGG…AGGTTGGTTTCACT; site = the 11-nt donor
Summary of the method: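 Counts of recombinant UMIs were reported as log10(CPM+1). Before that, they were converted to CPM, averaged over replicates and scaled using control-derived factors. They came from PCR across the donor–target junction after Escherichia coli carrying the pair library and target plasmid was plated on IPTG (0.07 mM) plus kanamycin, or unselected, in two replicates each.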
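Note: IS621 bridge recombinase in Escherichia coli cells against a fixed T5 target plasmid.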

Row | Sequence | recombinant UMI read abundance (log10)
1 | CTACGGCCATGGACCGGTTTTCCCGGTAATCCGTATTTGCC (site CTACGGCCTGG) | 0.363
2 | CTACGGGCATGGACCGGTTTTCCCGGTAATCCGTATTTGAG (site CTACGGGCTCT) | 1.72
3 | CTACTACCATGGACCGGTTTTCCCGGTAATCCGTATTTGCT (site CTACTACCTAG) | 0.232
4 | CTACTACCATGGACCGGTTTTCCCGGTAATCCGTATTTGCT (site CTCCTACCTAG) | 0.00711
5 | CTACTACCATGGACCGGTTTTCCCGGTAATCCGTATTTGCT (site CTGCTACCTAG) | 0.00524
6 | CTACTACCATGGACCGGTTTTCCCGGTAATCCGTATTTGCT (site CTTCTACCTAG) | 0
7 | CTACTACCATGGACCGGTTTTCCCGGTAATCCGTATTTGGA (site CTACTAACTTC) | 0.0163
8 | CTACTACCATGGACCGGTTTTCCCGGTAATCCGTATTTGGA (site CTACTACCTTC) | 0.00874
9 | CTACTACCATGGACCGGTTTTCCCGGTAATCCGTATTTGGA (site CTACTAGCTTC) | 0.00519
10 | CTACTACCATGGACCGGTTTTCCCGGTAATCCGTATTTGGA (site CTACTATCTTC) | 1.1
11 | CTACTAGCATGGACCGGTTTTCCCGGTAATCCGTATTTGAA (site CTACTAGCTTT) | 1.95
12 | CTACTATCATGGACCGGTTTTCCCGGTAATCCGTATTTGAC (site CTAATATCTGT) | 0
13 | CTACTATCATGGACCGGTTTTCCCGGTAATCCGTATTTGAC (site CTACTATCTGT) | 2.69
14 | CTACTATCATGGACCGGTTTTCCCGGTAATCCGTATTTGAC (site CTAGTATCTGT) | 0
15 | CTACTATCATGGACCGGTTTTCCCGGTAATCCGTATTTGAC (site CTATTATCTGT) | 0.0113
16 | CTAGAACCATGGACCGGTTTTCCCGGTAATCCGTATTTGAG (site CTAGAACCTCT) | 0.09
17 | CTAGCAGCATGGACCGGTTTTCCCGGTAATCCGTATTTGAC (site CTAGCAGCTGT) | 3.18
18 | CTAGCAGCATGGACCGGTTTTCCCGGTAATCCGTATTTGAC (site CTAGTATCTGT) | 0
19 | CTAGCATCATGGACCGGTTTTCCCGGTAATCCGTATTTGAA (site CTAGCATCTTT) | 2.86

Row | Sequence | recombinant UMI read abundance (log10)
20 | CTAGCATCATGGACCGGTTTTCCCGGTAATCCGTATTTGAA (site CTAGTATCTGT) | 0
21 | CTAGCGTCATGGACCGGTTTTCCCGGTAATCCGTATTTGGA (site CTAGCGTCTTC) | 2.45
22 | CTAGGCACATGGACCGGTTTTCCCGGTAATCCGTATTTGCA (site CTAGGCACTTG) | 1.67
23 | CTAGGGGCATGGACCGGTTTTCCCGGTAATCCGTATTTGTG (site CTAGGGGCTCA) | 1.23
24 | CTAGTAACATGGACCGGTTTTCCCGGTAATCCGTATTTGGA (site CTAATAACTTC) | 1.33
25 | CTAGTAACATGGACCGGTTTTCCCGGTAATCCGTATTTGGA (site CTACTAACTTC) | 0.119
26 | CTAGTAACATGGACCGGTTTTCCCGGTAATCCGTATTTGGA (site CTAGTAACTTC) | 1.98
27 | CTAGTAACATGGACCGGTTTTCCCGGTAATCCGTATTTGGA (site CTATTAACTTC) | 0.00934
28 | CTAGTACCATGGACCGGTTTTCCCGGTAATCCGTATTTGAT (site CTAGTACCTAT) | 0
29 | CTAGTACCATGGACCGGTTTTCCCGGTAATCCGTATTTGAT (site CTAGTATCTGT) | 1.35
30 | CTAGTAGCATGGACCGGTTTTCCCGGTAATCCGTATTTGCC (site CTAGTAGCTGG) | 1.64
31 | CTAGTAGCATGGACCGGTTTTCCCGGTAATCCGTATTTGCC (site CTAGTATCTGT) | 0
32 | CTAGTATCATGGACCGGTTTTCCCGGTAATCCGTATTTGCC (site CTAGTATCTGA) | 2.78
33 | CTAGTATCATGGACCGGTTTTCCCGGTAATCCGTATTTGCC (site CTAGTATCTGC) | 2.28
34 | CTAGTATCATGGACCGGTTTTCCCGGTAATCCGTATTTGCC (site CTAGTATCTGG) | 3.09
35 | CTAGTATCATGGACCGGTTTTCCCGGTAATCCGTATTTGCC (site CTAGTATCTGT) | 2.66
36 | CTAGTGTCATGGACCGGTTTTCCCGGTAATCCGTATTTGAT (site CTAGTATCTGT) | 1.55
37 | CTAGTGTCATGGACCGGTTTTCCCGGTAATCCGTATTTGAT (site CTAGTGTCTAT) | 2.25
38 | CTAGTGTCATGGACCGGTTTTCCCGGTAATCCGTATTTGGC (site CTAGTATCTGT) | 1.29

Row | Sequence | recombinant UMI read abundance (log10)
39 | CTAGTGTCATGGACCGGTTTTCCCGGTAATCCGTATTTGGC (site CTAGTGTCTGC) | 2.17
40 | CTAGTGTCATGGACCGGTTTTCCCGGTAATCCGTATTTGGT (site CTAGTGTCTAC) | 2.6
41 | CTATACACATGGACCGGTTTTCCCGGTAATCCGTATTTGCT (site CTATACACTAG) | 2.38
42 | CTATACACATGGACCGGTTTTCCCGGTAATCCGTATTTGCT (site CTCTACACTAG) | 1.53
43 | CTATACACATGGACCGGTTTTCCCGGTAATCCGTATTTGCT (site CTGTACACTAG) | 0.705
44 | CTATACACATGGACCGGTTTTCCCGGTAATCCGTATTTGCT (site CTTTACACTAG) | 0.92
45 | CTATACTCATGGACCGGTTTTCCCGGTAATCCGTATTTGTT (site CTATACTCTAA) | 3.11
46 | CTATATACATGGACCGGTTTTCCCGGTAATCCGTATTTGAC (site CTATATACTGT) | 3.02
47 | CTATCAACATGGACCGGTTTTCCCGGTAATCCGTATTTGCT (site CGATCATCTAG) | 0.00622
48 | CTATCAACATGGACCGGTTTTCCCGGTAATCCGTATTTGCT (site CTATCAACTAG) | 1.92
49 | CTATCATCATGGACCGGTTTTCCCGGTAATCCGTATTTGGT (site CGATCATCTAG) | 0
50 | CTATCATCATGGACCGGTTTTCCCGGTAATCCGTATTTGGT (site CTATCATCTAC) | 0.706
51 | CTATCCTCATGGACCGGTTTTCCCGGTAATCCGTATTTGAA (site CTATCCTCTTT) | 2.6
52 | CTATTCCCATGGACCGGTTTTCCCGGTAATCCGTATTTGCT (site CAATTCCCTAG) | 0.77
53 | CTATTCCCATGGACCGGTTTTCCCGGTAATCCGTATTTGCT (site CCATTCCCTAG) | 1.43
54 | CTATTCCCATGGACCGGTTTTCCCGGTAATCCGTATTTGCT (site CGATTCCCTAG) | 0.475
55 | CTATTCCCATGGACCGGTTTTCCCGGTAATCCGTATTTGCT (site CTATTCCCTAG) | 0.845
56 | CTCAACACATGGACCGGTTTTCCCGGTAATCCGTATTTGCT (site CTCAACACTAG) | 2
57 | CTCAACACATGGACCGGTTTTCCCGGTAATCCGTATTTGCT (site CTCCACACTAG) | 0.438
